For assay [1], the target named is T1, full length active recombinant SYK enzyme (Homo sapiens, UniProt P43405).
T1 construct: full length active recombinant SYK enzyme (Millipore, Calif.); purchased Millipore
Nature of the assay: Inhibition of Syk tyrosine phosphorylation activity (LANCE TR-FRET). Type of assay: biochemical. An excerpt:
This example illustrates methods for evaluating the compounds of the invention, along with results obtained for such assays. The in vitro and in vivo human Syk activities of the inventive compounds can be determined by various procedures known in the art, such as a test for their ability to inhibit the activity of human plasma Syk. […] The IC50 value is the concentration (in nM) of the compound required to provide 50% inhibition of human Syk proteolytic activity.
An in vitro assay for detecting and measuring inhibition activity against Syk is as follows:
Inhibition of Syk Tyrosine Phosphorylation Activity
Potency of candidate molecules for inhibiting Syk tyrosine phosphorylation activity is assessed by measuring the ability of a test compound to inhibit Syk-mediated tyrosine phosphorylation of a Syk-specific substrate.
SYK tyrosine phosphorylation activity is measured using the LANCE™ Technology developed by Perkin Elmer Life and Analytical Sciences (Boston, Mass.). LANCE™ refers to homogeneous time resolved fluorometry applications using techniques such as time-resolved fluorescence resonance energy transfer assay (TR-FRET) (see generally for procedures in Perkin Elmer Application Note-How to Optimize a Tyrosine Kinase Assay Using Time Resolved Fluorescence-Based LANCE Detection, wwww.perkinelmer.com/lifesciences). The assay principle involves detection of a phosphorylated substrate using energy transfer from a phosphospecific europium-labeled antibody to streptavidin-allophycocyanin as an acceptor.
To test the ability of candidate molecules to inhibit SYK tyrosine phosphorylation activity, molecules are reconstituted in 30% DMSO and serially diluted 1:3 with the final dilution containing DMSO in the absence of the candidate molecule. The final DMSO concentration in the assay is 3%. Kinase assays are performed as a two part reaction. The first reaction is a kinase reaction and which comprises of a candidate molecule, full length active recombinant SYK enzyme (Millipore, Calif.) and biotin-labeled SYK-specific substrate biotin-[…]-OH. The second reaction involves termination of the kinase reaction and the simultaneous addition of the detection reagents-europium-labeled anti-phosphotyrosine reagent (Eu-W1024-PY100, Perkin Elmer, Boston, Mass.) and Streptavidin-Allophycocyanin detection reagent (SA-APC, Prozyme, CA). The kinase reaction is performed in a black U-bottom 96-well microtitre plate. The final reaction volume is 50 μL and contains a final concentration of 1 nM active SYK enzyme, 550 nM SYK-substrate, and 100 nM ATP diluted in a buffer containing 50 mM Tris pH 7.5, 5 mM MgCl2, and 1 mM DTT. The reaction is allowed to proceed for 1 hour at room temperature. The quench buffer contains 100 mM Tris pH 7.5, 300 mM NaCl2, 20 mM EDTA, 0.02% Brij35, and 0.5% BSA. The detection reagents are added to the reaction mixture at the following dilutions-1:500 for Eu-W1024-PY100 and 1:250 for SA-APC. The kinase reaction is terminated by the addition of 50 μL quench buffer containing the detection reagents. […] Detection of the phosphorlated substrate in the absence and presence of inhibitors is measured in the TR-FRET instrument, Analyst HT (Molecular Probes, Sunnyvale, Calif.) and the condition for measurements are set up using CriterionHost Release 2.0 (Molecular Probes, Sunnyvale, Calif.). […] Inhibition of SYK-tyrosine kinase activity is calculated as the maximum response observed in the presence of inhibitor, compared to that in the absence of inhibitor. […]
For orientation: Time-resolved FRET reads energy transfer from a long-lived donor to a nearby acceptor.

Another assay addresses T2, JAK3 (Homo sapiens, UniProt P52333).
T2 construct: 5 μl of catalytic domain recombinant Kinase enzyme+Tyr peptide substrate (Invitrogen, CA); purchased Invitrogen
Nature of the assay: Z'-LYTE kinase assay JAK3. Type of assay: biochemical. In short, it runs like this:
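Read-out is FRET fluorescence between coumarin and fluorescein on a Tyr6 peptide, lost when the development protease cleaves unphosphorylated substrate. Kinase reaction used recombinant catalytic domain with ATP, 1 h at room temperature, 1% DMSO.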

As usually defined, the IC50 is the concentration needed to halve the response being measured.

T2 sequence (P52333 822-1111 limits assumed): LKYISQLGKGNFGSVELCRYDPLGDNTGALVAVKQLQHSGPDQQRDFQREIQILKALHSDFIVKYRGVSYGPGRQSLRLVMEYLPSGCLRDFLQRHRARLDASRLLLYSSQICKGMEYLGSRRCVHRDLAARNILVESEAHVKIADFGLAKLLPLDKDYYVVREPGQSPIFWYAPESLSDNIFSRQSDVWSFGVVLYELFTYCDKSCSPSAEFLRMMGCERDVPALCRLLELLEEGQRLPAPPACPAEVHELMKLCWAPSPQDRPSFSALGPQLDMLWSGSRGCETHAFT

`CC(=O)N1CCN(c2ccc(Nc3cc(NC4CC4)c(C(N)=O)cn3)cc2)CC1` [Example 2]: the IC50 in assay [1] is > 1 µM; against JAK3 it was 0.01 to 0.1 µM.

On to `CC(=O)N1CCN(c2ccc(Nc3cc(NCc4cccc(F)c4)c(C(N)=O)cn3)cc2)CC1` [Example 229], for which the half-maximal inhibitory concentration (IC50) is > 1 µM in assay [1] and 0.001 to 0.01 µM at JAK3.

These data come from patent US20150353495A1 (PORTOLA PHARMACEUTICALS, INC., priority 2010, published 2015).
